Experimental data from patent US4386073A, “Tripeptides acting on the central nervous system and a process for the preparation thereof” (Patentbureau DANUBIA, priority 1979, dated 1983).
Where a SMILES comes first, the peptide text is derived from it. [ ]: non-standard residue; d: D form. d(pGlu) = O=C1CC[C@H](C(=O)O)N1

Legend:
[1] = test system: TSH; assay: Hormonal activity (TSH effect) on rats; type: in vivo, rat (male Wistar); conditions: 20 mg/kg i.v., plasma TSH by radioimmune assay 15 min after treatment, relative activity, TRH = 100%
Description: (6) Hormonal activity (TSH effect) on rats
The tests were performed on groups of 7 or 8 male Wistar rats each, weighing 200 g. The animals were treated intravenously with 20 mg/kg of TRH or a tripeptide under examination. The TSH reaction of the animals was evaluated 15 minutes after this treatment, by subjecting the blood plasma to radioimmune assay. The relative activities were calculated by the four-point method using a TPA 101 computer, and the activity of TRH was regarded as 100%.

[2] = test system: L-Dopa-induced locomotive activity; assay: Potentiation of locomotive activity induced on mice by L-Dopa; type: in vivo; conditions: compound 20 mg/kg i.p., percent related to TRH; for Potentiation of the locomotive effect of L-Dopa, % after 30': Pargyline 40 mg/kg i.p., L-Dopa 100 mg/kg i.p., 30 min; for Potentiation of the locomotive effect of L-Dopa, % after 60': 60 min; for Potentiation of the locomotive effect of L-Dopa, % after 90': 90 min
Description: (2) Potentiation of locomotive activity induced on mice by L-Dopa (see The Thyroid Axis, Drugs and Behavior, p. 116, A. J. Prage Jr., Raven Press, New York, 1974)
The tests were performed on groups of 15 male mice each, weighing 18 to 22 g.
First, the animals were treated intraperitoneally with 40 mg/kg of N-methyl-N-propargyl-benzylamine (Pargyline), and then an intraperitoneal dosage of 20 mg/kg of TRH or a TRH-analogue was introduced, followed by an intraperitoneal dosage of 100 mg/kg of L-Dopa. The locomotive activity of the animals was recorded 30, 60 and 90 minutes after this treatment, and the level of potentiation was expressed in percents related to the results observed with TRH.

[3] = test system: ethanol-induced sleeping; assay: Ethanol narcosis; type: in vivo, CFLP (LATI) mice; conditions: mice, ethanol 4.5 g i.p., compound 20 mg/kg i.p. 10 min later; control sleeping 46.9 ± 2.17 min
Description: (5) Ethanol narcosis (see J. M. Cott et al.: J. Pharm. Exp. Ther. 196, 594/1976/) The tests were performed on groups of 20 CFLP (LATI) mice of both sexes, each weighing 18 to 22 g. 4.5 g of ethanol were introduced intraperitoneally into the animals, and 10 minutes later the animals were treated intraperitoneally with 20 mg/kg of the tripeptide under examination. The sleeping periods of the animals were recorded, averages were calculated for the individual groups, and the results were expressed as percents related to the control group.

[4] = test system: hexobarbital-induced sleeping; assay: Influencing the duration of sleeping caused by hexobarbital; type: in vivo; conditions: mice, hexobarbital sodium 60 mg/kg i.v., compound 20 mg/kg i.p. 10 min later; control sleeping 38.4 ± 1.36 min
Description: (4) Influencing the duration of sleeping caused by hexobarbital The tests were performed on groups of 10 male mice each. The animals were treated intravenously with 60 mg/kg of hexobarbital sodium ([…]®; Bayer), and 10 minutes later 20 mg/kg of TRH or a tripeptide under examination were administered intraperitoneally into the animals. The sleeping times of the animals were recorded, averages were calculated for the individual groups, and the results were expressed as percents related to the control group.

[5] = test system: Reserpine hypothermy; assay: Reserpine hypothermy-reversing effect on mice; type: in vivo; conditions: average of 10 animals; for Reserpine hypothermy reversing effect, rectal temperature obs. time 1 h: 1 hour after 20 mg/kg of the tripeptide; for Reserpine hypothermy reversing effect, rectal temperature obs. time 2 h: 2 hours after 20 mg/kg of the tripeptide; for Reserpine hypothermy reversing effect, rectal temperature res.: 16 hours after reserpine 5 mg/kg i.p., before the tripeptide; for Reserpine hypothermy reversing effect, rectal temperature norm.: baseline prior to administration of reserpine
Description: (3) Reserpine hypothermy-reversing effect on mice (see B. M. Askew: Life Sci. 2, 725-730/1963/)
The tests were performed on groups of 10 male mice each, weighing 18 to 22 g. Reserpine was administered into the animals in an intraperitoneal dosage of 5 mg/kg, and 16 hours later the animals were treated with 20 mg/kg of TRH or a tripeptide under examination.
The rectal temperature of the animals was measured prior to the administration of reserpine (marked by "norm." in Table 1), 16 hours after the administration of reserpine (marked by "res." in Table 1), furthermore 1 and 2 hours after the administration of the tripeptide (marked by "obs.time" in Table 1). The data listed in Table 1 are the averages of the temperatures observed on the 10 animals.

[6] = test system: Haloperidol-induced catalepsy; assay: Inhibition of Haloperidol-induced catalepsy on rats; type: in vivo, rat (male Wistar); conditions: Haloperidol 40 mg/kg s.c., test compound i.v. 120 min later, probit analysis, at the time given
Description: (1) Inhibition of Haloperidol-induced catalepsy on rats (see J. Delay and P. Deniker: Compt. Rend. Congr. Med. Alenistes Neurologistes, 19, 497, Luxembourg, 1952)
The tests were performed on male Wistar rats weighing 160 to 180 g.
40 mg/kg of 4-(p-chlorophenyl)-1-(3-/p-fluorobenzoyl/-propyl)-piperidin-4-ol (Haloperi dol) were administered subcutaneously into the animals, and 120 minutes after this treatment the animals were checked for the appearance of catalepsy. The rats were divided into groups of 10 animals each, and treated intravenously with TRH or the new TRH analogues. The animals belonging to the control group received physiological saline. The catalepsy-suspending effects of the individual compounds were determined 15, 30, 60, 90 and 120 minutes after the treatment. The animals that had not changed their position for 30 seconds after placing their fore-paw onto a 7 cm high column were regarded as cataleptic.

Compound | TSH effect [1] [%] | Potentiation of the locomotive effect of L-Dopa, % after 30' [2] [%] | Potentiation of the locomotive effect of L-Dopa, % after 60' [2] [%] | Potentiation of the locomotive effect of L-Dopa, % after 90' [2] [%] | Decrease of sleeping period (% related to the control animals), Ethanol [3] [%] | Decrease of sleeping period (% related to the control animals), Hexobarb. [4] [%] | Reserpine hypothermy reversing effect, rectal temperature obs. time 1 h [5] [°C] | Reserpine hypothermy reversing effect, rectal temperature obs. time 2 h [5] [°C] | Reserpine hypothermy reversing effect, rectal temperature res. [5] [°C] | Reserpine hypothermy reversing effect, rectal temperature norm. [5] [°C] | Inhibition of Haloperidol catalepsy ED50 [6] [mg/kg]
CC(C)C[C@H](NC(=O)[C@H]1CCC(=O)N1)C(=O)N1CCC[C@H]1C(N)=O [D-Glp Leu Pro, D-Pyroglutamyl-L-leucyl-L-prolinamide] ([d(pGlu)]-Leu-Pro-NH2) | 0 | 54 | 58 | 115 | 54 | 97 | 25.8 | 25.6 | 27.4 | 36.5 | 70
CC(C)C[C@H](NC(=O)C1CNC(=O)N1)C(=O)N1CCC[C@H]1C(N)=O (stereo partly drawn) [Kic Leu Pro, L-2-Ketoimidazolidine-4-carbonyl-L-leucyl-L-prolinamide] | 0 | 118 | 70 | 98 | 69 | 59 | 27.7 | 28.8 | 24.1 | 35.5 | 80
CC(C)C[C@H](NC(=O)C1CCCC(=O)N1)C(=O)N1CCC[C@H]1C(N)=O (stereo partly drawn) [Kpc Leu Pro, L-6-ketopiperidine-2-carbonyl-L-leucyl-L-prolinamide] | 2.7 | 319 | 80 | 127 | 79 | 37 | 32.0 | 33.9 | 24.5 | 36.3 | 23.5
CCC[C@H](NC(=O)C1CCCC(=O)N1)C(=O)N1CCCC[C@H]1C(N)=O (stereo partly drawn) [Kpc Nva HPro, L-6-Ketopiperidine-2-carbonyl-L-norvalyl-L-homoprolinamide] |  | 63 | 30 | 108 | 35 | 76 | 26.5 | 32.2 | 20.7 | 36.3 | 35.3
CCC[C@H](NC(=O)C1CCCC(=O)N1)C(=O)N1CCC[C@H]1C(N)=O (stereo partly drawn) [Kpc Nva Pro, L-6-Ketopiperidine-2-carbonyl-L-norvalyl-L-prolinamide] | 0 | 36 | 45 | 65 | 46 | 51 | 33.1 | 32.5 | 23.9 | 36.3 | 10.6
NC(=O)[C@@H]1CCCN1C(=O)[C@H](Cc1c[nH]cn1)NC(=O)[C@@H]1CCC(=O)N1 [TRH, L-pyroglutamyl-L-histidyl-L-prolinamide, reference compound] |  |  | 100 | 100 | 35 | 56 | 35.5 |  |  |  | 80
